Some test systems named below: K-562 leukemia; KM12 colon; MALME-3M melanoma; OVCAR-3 ovarian; OVCAR-8 ovarian; RPMI-8226 leukemia; SK-MEL-5 melanoma; SN12C renal; SW-620 colon; UACC-62 melanoma.
Holding throughout (assay): inhibition of tumour cell growth, NCI panel, 48 h

SMILES strings stand for the structures. Values joined by “and” are separate entries in the source; they are usually repeats but may differ in a detail not shown here. Equal entries are not always repeated.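 Grown in 96-well plates, cells were treated for 48 hours with each compound at five concentrations. Insufficient inhibition: endpoint recorded as highest concentration tested. GI50 marks 50% less growth. The concentration for full growth arrest is given as TGI.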

Consider `CC(=O)[O-].CC(=O)[O-].O=C(N/N=C/c1cc(Cl)cc(Cl)c1O)c1ccncc1.[Ni+2]`, for which the TGI in the test on K-562 leukemia is above 100 µM; with KM12 colon, above 100 µM; with MALME-3M melanoma, above 100 µM; with OVCAR-3 ovarian, 80.8 µM; in the test on OVCAR-8 ovarian, above 100 µM; in the test with RPMI-8226 leukemia, above 100 µM. For the same compound, the TGI in the test with SK-MEL-5 melanoma was above 100 µM; with SN12C renal, above 100 µM; with SW-620 colon, 83.5 µM; with UACC-62 melanoma, above 100 µM.

With `Cc1ccc(-n2c3nc(=O)n(C)c(=O)c-3nc3ccccc32)cc1`, the TGI with K-562 leukemia was 53.7 µM; with KM12 colon it was above 100 µM; in the test on MALME-3M melanoma, 27.2 µM; in the test on OVCAR-3 ovarian, 17.6 µM; in the test with OVCAR-8 ovarian, 51.8 µM; in the test on RPMI-8226 leukemia it was 54.6 µM. In addition, the TGI with SK-MEL-5 melanoma is 26.2 µM; in the test on SN12C renal, 34 µM; in the test on SW-620 colon it was 19.6 µM; in the test on UACC-62 melanoma, 5.52 µM.

Take `Cc1cc(C(=O)Nc2nc3cccc(Cl)c3n2[C@@H]2CCCCN(C(=O)/C=C/CN(C)C)C2)ccn1`: the GI50 with K-562 leukemia is 9.58 µM; with KM12 colon it was 9.43 µM; with MALME-3M melanoma, 18.2 µM; in the test with OVCAR-3 ovarian it was 4.08 µM; in the test with OVCAR-8 ovarian it was 11.4 µM; with RPMI-8226 leukemia, 9.25 µM. Besides, the GI50 was 8.97 µM in the test on SK-MEL-5 melanoma, 3.51 µM with SN12C renal, 14.6 µM with SW-620 colon and 15.3 µM with UACC-62 melanoma. Further, the TGI came out at 61.5 µM in the test on K-562 leukemia; 25.6 µM in the test on KM12 colon; 34 µM in the test on MALME-3M melanoma; 18.4 µM in the test on OVCAR-3 ovarian; 40.3 µM in the test on OVCAR-8 ovarian; 32 µM with RPMI-8226 leukemia. Further, the TGI was 22.8 µM in the test with SK-MEL-5 melanoma, 22.2 µM with SN12C renal, 31.5 µM in the test with SW-620 colon and 31.5 µM in the test with UACC-62 melanoma.

On to `CCOC(CCCNCCCn1c2c(c3cc(OC)c(OC)cc3c1=O)C(=O)c1cc3c(cc1-2)OCO3)OCC`, for which the GI50 in the test with K-562 leukemia is 5.53 µM; in the test on KM12 colon it was 5.93 µM; with MALME-3M melanoma it was 6.77 µM; in the test on OVCAR-3 ovarian, 7.65 µM; in the test with OVCAR-8 ovarian, 5.27 µM; in the test with RPMI-8226 leukemia it was 0.308 µM. Moreover, the GI50 was 7.62 µM in the test on SK-MEL-5 melanoma, 5.04 µM in the test with SN12C renal, 2.63 µM in the test on SW-620 colon and 6.03 µM with UACC-62 melanoma. Also, the TGI worked out at 11.5 µM in the test on K-562 leukemia; 12.1 µM with KM12 colon; 13.6 µM with MALME-3M melanoma; 14.3 µM with OVCAR-3 ovarian; 11.2 µM with OVCAR-8 ovarian; 8.45 µM in the test on RPMI-8226 leukemia. Further, the TGI in the test with SK-MEL-5 melanoma amounted to 14.3 µM; in the test with SN12C renal, 10.8 µM; in the test with SW-620 colon it was 10.5 µM; in the test on UACC-62 melanoma it was 12.2 µM.

Consider `CC(C)CCSC1=CC(=O)c2ccccc2C1=O`, for which the GI50 with K-562 leukemia was 0.313 µM; in the test with KM12 colon, 7.36 µM; in the test with MALME-3M melanoma it was 1.57 µM; in the test with OVCAR-3 ovarian, 1.17 µM; in the test with OVCAR-8 ovarian, 4.56 µM; in the test with RPMI-8226 leukemia it was 0.0469 µM. Moreover, the GI50 in the test with SK-MEL-5 melanoma is 0.723 µM; in the test with SN12C renal, 12.9 µM; in the test on SW-620 colon, 2.59 µM; in the test with UACC-62 melanoma, 4.02 µM. Besides, the TGI was 1.2 µM in the test with K-562 leukemia; 21.5 µM in the test with KM12 colon; 4.24 µM with MALME-3M melanoma; 2.39 µM with OVCAR-3 ovarian; 17.3 µM with OVCAR-8 ovarian; 0.304 µM in the test on RPMI-8226 leukemia. The TGI in the test on SK-MEL-5 melanoma amounted to 20.1 µM; in the test with SN12C renal, 25.8 µM; in the test with SW-620 colon, 8.91 µM; in the test on UACC-62 melanoma it was 14.8 µM.

Consider `CCN(CC)c1ccc(C2CC(c3cc(OC)c(OC)c(OC)c3)=NN2)cc1` (stereo unspecified), for which the GI50 is 0.336 µM with K-562 leukemia; 0.372 µM in the test with KM12 colon; 14.5 µM in the test with MALME-3M melanoma; 1.88 µM with OVCAR-3 ovarian; 0.43 µM in the test with OVCAR-8 ovarian; 0.632 µM in the test on RPMI-8226 leukemia. The GI50 with SK-MEL-5 melanoma was 0.706 µM; in the test on SN12C renal, 0.737 µM; with SW-620 colon it was 0.47 µM; with UACC-62 melanoma it was 0.446 µM. In addition, the TGI in the test on K-562 leukemia was above 37.6 µM; in the test on KM12 colon it was above 100 µM; in the test with MALME-3M melanoma, above 78.7 µM; in the test with OVCAR-3 ovarian it was above 100 µM; in the test with OVCAR-8 ovarian, above 27.5 µM; in the test with RPMI-8226 leukemia, 7.91 µM. The TGI in the test on SK-MEL-5 melanoma was 3.52 µM; in the test with SN12C renal, above 100 µM; with SW-620 colon, above 100 µM; in the test with UACC-62 melanoma it was above 68.2 µM.

With `CCc1c2c(nc3cc4c(c(N)c13)OCO4)-c1cc3c(c(=O)n1C2)COC(=O)[C@]3(O)CC`, the GI50 is 0.00135 µM in the test with K-562 leukemia; 0.133 µM and 0.0578 µM in the test with KM12 colon; 0.0276 µM in the test with MALME-3M melanoma; 0.278 µM and 0.264 µM in the test on OVCAR-3 ovarian; below 0.001 µM in the test with SK-MEL-5 melanoma; below 0.001 µM with SN12C renal. Also, the GI50 with UACC-62 melanoma was below 0.001 µM. In addition, the TGI in the test on K-562 leukemia is above 100 µM; in the test with KM12 colon, 1.66 µM; with MALME-3M melanoma, 4.25 µM; in the test with OVCAR-3 ovarian it was above 100 µM; in the test on OVCAR-8 ovarian, 14.7 µM; with RPMI-8226 leukemia, 0.317 µM and 2.77 µM. For the same compound, the TGI in the test with SK-MEL-5 melanoma was 0.0222 µM and 0.101 µM; in the test on SN12C renal, above 100 µM; in the test with SW-620 colon it was above 100 µM; with UACC-62 melanoma it was 0.405 µM and 0.236 µM.

For `O=C1OC(c2ccccc2)=N/C1=C\c1ccc2ccccc2c1`, the TGI in the test on K-562 leukemia, in the test on KM12 colon, in the test on MALME-3M melanoma, in the test with OVCAR-3 ovarian, in the test on OVCAR-8 ovarian and with RPMI-8226 leukemia was above 100 µM in each case. The TGI with SK-MEL-5 melanoma, in the test with SN12C renal, in the test with SW-620 colon and in the test with UACC-62 melanoma was above 100 µM throughout.

As to `O=C(/C=C/c1ccc(O)c(O)c1)OC1C[C@@](O)(C(=O)O)C[C@@H](O)[C@H]1OC(=O)/C=C/c1ccc(O)c(O)c1` (stereo partly specified), the TGI in the test on K-562 leukemia, in the test on KM12 colon, in the test with MALME-3M melanoma, in the test with OVCAR-3 ovarian, in the test on OVCAR-8 ovarian and with RPMI-8226 leukemia was above 100 µM each time. Also, the TGI with SK-MEL-5 melanoma, in the test with SW-620 colon and in the test with UACC-62 melanoma was above 100 µM each time.

For the origin of these results see PubChem BioAssay (NCI).
